Assay results: ChEMBL document CHEMBL3271994, “Diethyl (4baalpha,4calpha,9aalpha,9balpha)-3,6-dichlorocyclobuta[1,2-b:3,4-b']bisbenzofuran-9a,9b(4bH,4cH)-dicarboxylate: the cis,syn photodimer of ethyl 5-chlorobenzofuran-2-carboxylate, an analogue related to the antilipidemic drug clofibrate” (J Med Chem, 1978)
Active and inactive are the calls of the source. No cut-off for these calls is given here.

Tests used:
Rattus norvegicus [1] = assay: Increase in microsomal protein level in sucrose-fed Sprague-Dawley rat model at 0.4 mmol/kg, po bid administered for 7 days measured after 12 hrs post last dose (reference value: 32.7 +/- 2.2 mg/gm); assay type: ADME, organism-based; conditions: in vivo
Rattus norvegicus [2] = assay: Antilipidemic activity in sucrose-fed Sprague-Dawley rat model assessed as reduction in HMG-CoA reductase activity at 0.2 mmol/kg, po bid administered for 7 days measured after 12 hrs post last dose relative to control; assay type: functional
Rattus norvegicus [3] = assay: Effect on cytochrome b5 level in sucrose-fed Sprague-Dawley rat model assessed per mg of protein at 0.4 mmol/kg, po bid administered for 7 days measured after 12 hrs post last dose (reference value: 0.184 +/- 0.023 nmol); assay type: ADME, organism-based; conditions: in vivo
Rattus norvegicus [4] = assay: Increase in ethylmorphine N-demethylase activity in sucrose-fed Sprague-Dawley rat model at 0.2 mmol/kg, po bid administered for 7 days measured after 12 hrs post last dose relative to control; assay type: ADME, organism-based; conditions: in vivo
Rattus norvegicus [5] = assay: Antilipidemic activity in sucrose-fed Sprague-Dawley rat model assessed as reduction of liver cholesterol level at 0.4 mmol/kg, po bid administered for 7 days measured after 12 hrs post last dose (reference value: 1.86 +/- 0.17 mg/gm); assay type: functional
Rattus norvegicus [6] = assay: Increase in NADPH cytochrome c reductase activity in sucrose-fed Sprague-Dawley rat model at 0.2 mmol/kg, po bid administered for 7 days measured after 12 hrs post last dose relative to control; assay type: ADME, organism-based; conditions: in vivo
Rattus norvegicus [7] = assay: Antilipidemic activity in purina chow fed Sprague-Dawley rat assessed as reduction of serum triglyceride level at 0.124 mM/kg relative to control; assay type: functional; parameters: scale not given: the % may be the effect or the level left
Rattus norvegicus [8] = assay: Antilipidemic activity in sucrose-fed Sprague-Dawley rat model assessed as reduction of liver triglyceride level at 0.4 mmol/kg, po bid administered for 7 days measured after 12 hrs post last dose relative to control; assay type: functional
Rattus norvegicus [9] = assay: Antilipidemic activity in triton WR-1339-induced hyperlipidemic Sprague-Dawley rat model assessed as reduction of plasma lipid level at 0.124 mM/kg measured 43 hrs after triton WR-1339 challenge
Rattus norvegicus [10] = assay: Increase in liver to body weight ratio in sucrose-fed Sprague-Dawley rat model at 0.4 mmol/kg, po bid administered for 7 days measured after 12 hrs post last dose (reference value: 4.07 +/- 0.28 %); assay type: ADME, organism-based; conditions: in vivo
Rattus norvegicus [11] = assay: Effect on cytochrome P450 level in sucrose-fed Sprague-Dawley rat model assessed per mg of protein at 0.2 mmol/kg, po bid administered for 7 days measured after 12 hrs post last dose relative to control; assay type: ADME, organism-based; conditions: in vivo
Rattus norvegicus [12] = assay: Effect on cytochrome b5 level in sucrose-fed Sprague-Dawley rat model assessed per mg of protein at 0.2 mmol/kg, po bid administered for 7 days measured after 12 hrs post last dose (reference value: 0.184 +/- 0.023 nmol); assay type: ADME, organism-based; conditions: in vivo
Rattus norvegicus [13] = assay: Antilipidemic activity in triton WR-1339-induced hyperlipidemic Sprague-Dawley rat model assessed as reduction of serum cholesterol level at 0.124 mM/kg relative to control; assay type: functional; parameters: scale not given: the % may be the effect or the level left
Rattus norvegicus [14] = assay: Antilipidemic activity in sucrose-fed Sprague-Dawley rat model assessed as reduction of liver triglyceride level at 0.2 mmol/kg, po bid administered for 7 days measured after 12 hrs post last dose relative to control; assay type: functional
Rattus norvegicus [15] = assay: Antilipidemic activity in sucrose fed Sprague-Dawley rat model assessed as serum triglyceride level at 0.4 mmol/kg, po bid administered for 7 days measured after 12 hrs post last dose (reference value: 91.9 +/- 19.8 mg/dL); assay type: functional
Rattus norvegicus [16] = assay: Effect on cytochrome P450 level in sucrose-fed Sprague-Dawley rat model assessed per mg of protein at 0.2 mmol/kg, po bid administered for 7 days measured after 12 hrs post last dose (reference value: 0.361 +/- […] nmol); assay type: ADME, organism-based; conditions: in vivo
Rattus norvegicus [17] = assay: Antilipidemic activity in sucrose-fed Sprague-Dawley rat model assessed as reduction of liver cholesterol level at 0.2 mmol/kg, po bid administered for 7 days measured after 12 hrs post last dose (reference value: 1.86 +/- 0.17 mg/gm); assay type: functional
Rattus norvegicus [18] = assay: Increase in liver to body weight ratio in sucrose-fed Sprague-Dawley rat model at 0.2 mmol/kg, po bid administered for 7 days measured after 12 hrs post last dose (reference value: 4.07 +/- 0.28 %); assay type: ADME, organism-based; conditions: in vivo
Rattus norvegicus [19] = assay: Increase in liver weight in sucrose-fed Sprague-Dawley rat model at 0.2 mmol/kg, po bid administered for 7 days measured after 12 hrs post last dose (reference value: 11.76 +/- 1.32 gm); assay type: ADME, organism-based; conditions: in vivo
Rattus norvegicus [20] = assay: Increase in NADPH cytochrome c reductase activity in sucrose-fed Sprague-Dawley rat model at 0.2 mmol/kg, po bid administered for 7 days measured after 12 hrs post last dose (reference value: 148.7 +/- 17.7 nmol/mg/min); assay type: ADME, organism-based; conditions: in vivo
Rattus norvegicus [21] = assay: Antilipidemic activity in purina chow fed Sprague-Dawley rat assessed as reduction of serum cholesterol level at 0.124 mM/kg relative to control; assay type: functional; parameters: scale not given: the % may be the effect or the level left
Rattus norvegicus [22] = assay: Antilipidemic activity in sucrose-fed Sprague-Dawley rat model assessed as reduction in HMG-CoA reductase activity at 0.4 mmol/kg, po bid administered for 7 days measured after 12 hrs post last dose relative to control; assay type: functional
Rattus norvegicus [23] = assay: Antilipidemic activity in sucrose fed Sprague-Dawley rat model assessed as serum triglyceride level at 0.2 mmol/kg, po bid administered for 7 days measured after 12 hrs post last dose (reference value: 91.9 +/- 19.8 mg/dL); assay type: functional
Rattus norvegicus [24] = assay: Increase in microsomal protein level in sucrose-fed Sprague-Dawley rat model at 0.2 mmol/kg, po bid administered for 7 days measured after 12 hrs post last dose (reference value: 32.7 +/- 2.2 mg/gm); assay type: ADME, organism-based; conditions: in vivo
Rattus norvegicus [25] = assay: Antilipidemic activity in sucrose fed Sprague-Dawley rat model assessed as serum cholesterol level at 0.2 mmol/kg, po bid administered for 7 days measured after 12 hrs post last dose (reference value: 61.7 +/- 11.6 mg/dL); assay type: functional
Rattus norvegicus [26] = assay: Antilipidemic activity in triton WR-1339-induced hyperlipidemic Sprague-Dawley rat model assessed as reduction of serum triglyceride level at 0.124 mM/kg relative to control; assay type: functional; parameters: scale not given: the % may be the effect or the level left
Rattus norvegicus [27] = assay: Antilipidemic activity in sucrose fed Sprague-Dawley rat model assessed as serum cholesterol level at 0.4 mmol/kg, po bid administered for 7 days measured after 12 hrs post last dose (reference value: 61.7 +/- 11.6 mg/dL); assay type: functional
Rattus norvegicus [28] = assay: Increase in liver weight in sucrose-fed Sprague-Dawley rat model at 0.4 mmol/kg, po bid administered for 7 days measured after 12 hrs post last dose (reference value: 11.76 +/- 1.32 gm); assay type: ADME, organism-based; conditions: in vivo
Rattus norvegicus [29] = assay: Effect on cytochrome P450 level in sucrose-fed Sprague-Dawley rat model assessed per mg of protein at 0.4 mmol/kg, po bid administered for 7 days measured after 12 hrs post last dose relative to control; assay type: ADME, organism-based; conditions: in vivo
Rattus norvegicus [30] = assay: Increase in ethylmorphine N-demethylase activity in sucrose-fed Sprague-Dawley rat model at 0.4 mmol/kg, po bid administered for 7 days measured after 12 hrs post last dose relative to control; assay type: ADME, organism-based; conditions: in vivo
Rattus norvegicus [31] = assay: Increase in NADPH cytochrome c reductase activity in sucrose-fed Sprague-Dawley rat model at 0.4 mmol/kg, po bid administered for 7 days measured after 12 hrs post last dose relative to control; assay type: ADME, organism-based; conditions: in vivo

Compound	Activity (Rattus norvegicus [1])	Activity (Rattus norvegicus [3])	Activity (Rattus norvegicus [5])	Activity (Rattus norvegicus [7])	Activity (Rattus norvegicus [8])	Activity (Rattus norvegicus [9])	Activity (Rattus norvegicus [10])	Activity (Rattus norvegicus [13])	Activity (Rattus norvegicus [15])	Activity (Rattus norvegicus [21])	Activity (Rattus norvegicus [22])	Activity (Rattus norvegicus [26])	Activity (Rattus norvegicus [27])	Activity (Rattus norvegicus [28])	further results
CCOC(=O)[C@@]12Oc3ccc(Cl)cc3[C@@H]1[C@@H]1c3cc(Cl)ccc3O[C@@]12C(=O)OCC	38.2 mg/g	0.19 nmol	2.1 mg/g	24.3%	12.34 mg/g	inactive	4.03%	176.7%	102.7 mg/dL	63.9%	2.41 nmol/mg/h	33%	81 mg/dL	11.99 g	Activity (Rattus norvegicus [2]): 2.42 nmol/mg/h; Activity (Rattus norvegicus [4]): 157%; Activity (Rattus norvegicus [6]): 123%; Activity (Rattus norvegicus [11]): 138%; Activity (Rattus norvegicus [12]): 0.179 nmol; Activity (Rattus norvegicus [14]): 8.09 mg/g; Activity (Rattus norvegicus [16]): 0.386 nmol; Activity (Rattus norvegicus [17]): 1.98 mg/g; Activity (Rattus norvegicus [18]): 3.69%; Activity (Rattus norvegicus [19]): 11.24 g; Activity (Rattus norvegicus [20]): 168.7 nmol/mg/min; Activity (Rattus norvegicus [23]): 70.2 mg/dL; Activity (Rattus norvegicus [24]): 41.4 mg/g; Activity (Rattus norvegicus [25]): 69.5 mg/dL
CCOC(=O)C(C)(C)Oc1ccc(Cl)cc1 [CLOFIBRATE]	39.3 mg/g	0.2 nmol	1.84 mg/g	24.1%	3.21 mg/g	inactive	5.24%	93.2%	26.9 mg/dL	87%	2.1 nmol/mg/h	22.3%	31.7 mg/dL	14.3 g	Activity (Rattus norvegicus [29]): 262%; Activity (Rattus norvegicus [30]): 180%; Activity (Rattus norvegicus [31]): 163%
